US12275703B2, “Highly purified batches of pharmaceutical grade migalastat and methods of producing the same” (Amicus Therapeutics, Inc., priority 2020, dated 2025)

Test system: bacterial reverse mutation
Test: bacterial reverse mutation (Ames) test
Assay type: cell-based
Conditions: for Ames Positive?: bacterial reverse mutation (Ames) test; for Designated Genotoxin?: designation from Derek and Ames outcome
Description: The starting materials, reagents, intermediates, and process impurities generated in the manufacturing process for migalastat hydrochloride were assessed for their potential genotoxicity using in silico (Derek for Windows v13 Lhasa Ltd) screening software. The chemical structures which were DEREK negative were evaluated using Leadscope (Model Applier and Expert Alerts). […] Where possible, the genotoxicity of these materials was then assessed via the use of the bacterial reverse mutation (Ames) test.

| SMILES | Ames Positive? | Designated Genotoxin? | also measured |
| --- | --- | --- | --- |
| CC(C)(C)C(=O)OC[C@@H](N=[N+]=[N-])[C@@H]1O[C@@H](OC(=O)C(C)(C)C)[C@H](OC(=O)C(C)(C)C)[C@H]1OC(=O)C(C)(C)C [5-azido-5-deoxy-1,2,3,6-tetrapivaloyl-D-galactofuranoside] | No | No | – |
| CC(C)(C)C(=O)OC[C@@H](OS(=O)(=O)C(F)(F)F)[C@@H]1O[C@@H](OC(=O)C(C)(C)C)[C@H](OC(=O)C(C)(C)C)[C@H]1OC(=O)C(C)(C)C [Compound D] | not sufficiently stable for Ames testing | designated as genotoxins | Ames Positive? (listed as drawing 74): Insufficiently stable for Ames test; Designated Genotoxin? (listed as drawing 74): Yes |
| CC(C)(C)C(=O)OC[C@H](OS(=O)(=O)C(F)(F)F)[C@@H]1O[C@@H](OC(=O)C(C)(C)C)[C@H](OC(=O)C(C)(C)C)[C@H]1OC(=O)C(C)(C)C [Compound F] | not sufficiently stable for Ames testing | designated as genotoxins | Ames Positive? (listed as drawing 75): Insufficiently stable for Ames test; Designated Genotoxin? (listed as drawing 75): Yes |
| CC(C)(C)C(=O)OC[C@H](N=[N+]=[N-])[C@@H]1O[C@@H](OC(=O)C(C)(C)C)[C@H](OC(=O)C(C)(C)C)[C@H]1OC(=O)C(C)(C)C [Compound N] | No | No | – |
| [N-]=[N+]=N[C@@H]1CO[C@@](O)(CO)[C@@H](O)[C@H]1O [Compound P] | Ames positive | confirmed as genotoxins | Ames Positive? (listed as drawing 79): Yes; Designated Genotoxin? (listed as drawing 79): Yes |
| [N-]=[N+]=N[C@H](CO)[C@@H]1O[C@@H](O)[C@H](O)[C@H]1O [Compound Q] | Ames positive | confirmed as genotoxins | Ames Positive? (listed as drawing 78): Yes; Designated Genotoxin? (listed as drawing 78): Yes |
| Cl.O[C@@H]1[C@H](O)[C@@H](O)CN[C@@H]1CCl [Compound X] | Ames positive | confirmed as genotoxins | Ames Positive? (listed as drawing 80): Yes; Designated Genotoxin? (listed as drawing 80): Yes |
| CCCl [Ethyl chloride] | Yes | Yes | – |
